Measurements published in patent publication US6677331B2, “Carbapenem derivatives” (Meiji Seika Kaisha, Ltd., priority 1998, dated 2004).
≈ marks a conversion by molar mass, not a printed value.

Tests used:
C. freundii GN346 = assay: Test 1: Anti-Microbial Activities (MIC); format: cell-based; details: Sensitivity Disk agar-N+5% Horse blood, inoculants 10^6 CFU/ml; for MIC: Citrobacter freundii, read-out: minimum inhibiting concentrations (MIC)
Experimental: (§1) The minimum inhibiting concentrations (MIC, μg/ml) of the compounds according to the present invention to various pathogenic bacteria was measured in accordance with the method described in CHEMOTHERAPY, vol. 16, No. 1,99, 1968. The culture medium for measurement was Sensitivity Disk agar-N+5% Horse blood, and the amount of inoculants was 10^6 CFU/ml.

E. coli NIHJ JC-2 = assay: Test 1: Anti-Microbial Activities (MIC); format: cell-based; details: inoculants 10^6 CFU/ml; for MIC: Escherichia coli, NIHJJC2, Sensitivity Disk agar-N+5% Horse blood, read-out: minimum inhibiting concentrations (MIC)
Experimental: as §1

E. faecalis W-73 = assay: Test 1: Anti-Microbial Activities (MIC); format: cell-based; details: inoculants 10^6 CFU/ml; for MIC: Enterococcus faecalis, W73, Sensitivity Disk agar-N+5% Horse blood, read-out: minimum inhibiting concentrations (MIC)
Experimental: as §1

E. hirae ATCC8043 = assay: Test 1: Anti-Microbial Activities (MIC); format: cell-based; details: Sensitivity Disk agar-N+5% Horse blood, inoculants 10^6 CFU/ml; for MIC: Enterococcus hirae, read-out: minimum inhibiting concentrations (MIC)
Experimental: as §1

H. influenzae PRC2 = assay: Test 1: Anti-Microbial Activities (MIC); format: cell-based; details: Sensitivity Disk agar-N+5% Horse blood, inoculants 10^6 CFU/ml; for MIC: Haemophilus influenzae, read-out: minimum inhibiting concentrations (MIC)
Experimental: as §1

H. influenzae PRC44 = assay: Test 1: Anti-Microbial Activities (MIC); format: cell-based; details: Sensitivity Disk agar-N+5% Horse blood, inoculants 10^6 CFU/ml; for MIC: Haemophilus influenzae, read-out: minimum inhibiting concentrations (MIC)
Experimental: as §1

K. pneumoniae PCI602 = assay: Test 1: Anti-Microbial Activities (MIC); format: cell-based; details: Sensitivity Disk agar-N+5% Horse blood, inoculants 10^6 CFU/ml; for MIC: Klebsiella pneumoniae, read-out: minimum inhibiting concentrations (MIC)
Experimental: as §1

M. catarrhalis W-0500 = assay: Test 1: Anti-Microbial Activities (MIC); format: cell-based; details: inoculants 10^6 CFU/ml; for MIC: Moraxella catarrhalis, W0500, Sensitivity Disk agar-N+5% Horse blood, read-out: minimum inhibiting concentrations (MIC)
Experimental: as §1

P. vulgaris GN7919 = assay: Test 1: Anti-Microbial Activities (MIC); format: cell-based; details: Sensitivity Disk agar-N+5% Horse blood, inoculants 10^6 CFU/ml; for MIC: Proteus vulgaris, read-out: minimum inhibiting concentrations (MIC)
Experimental: as §1

S. aureus 209P JC-1 = assay: Test 1: Anti-Microbial Activities (MIC); format: cell-based; details: Sensitivity Disk agar-N+5% Horse blood, inoculants 10^6 CFU/ml; for MIC: Staphylococcus aureus, read-out: minimum inhibiting concentrations (MIC)
Experimental: as §1

S. aureus M126 = assay: Test 1: Anti-Microbial Activities (MIC); format: cell-based; details: S. aureus M126, methicillin-hyperresistant strain (MRSA), Sensitivity Disk agar-N+5% Horse blood, inoculants 10^6 CFU/ml; for MIC: Staphylococcus aureus, read-out: minimum inhibiting concentrations (MIC)
Experimental: as §1

S. epidermidis ATCC14990 = assay: Test 1: Anti-Microbial Activities (MIC); format: cell-based; details: Sensitivity Disk agar-N+5% Horse blood, inoculants 10^6 CFU/ml; for MIC: Staphylococcus epidermidis, read-out: minimum inhibiting concentrations (MIC)
Experimental: as §1

S. pneumoniae PRC9 = assay: Test 1: Anti-Microbial Activities (MIC); format: cell-based; details: S. pneumoniae PRC9, penicillin-hyperresistant strain (PRSP), Sensitivity Disk agar-N+5% Horse blood, inoculants 10^6 CFU/ml; for MIC: Streptococcus pneumoniae, read-out: minimum inhibiting concentrations (MIC)
Experimental: as §1

mouse DHP-I = target: T1, mouse DHP-I (Mus musculus, UniProt P31428); assay: Test 2: stability against DHP-I (mouse); details: partly purified Mouse DHP-I; 100 μg (titer)/ml; 37° C., 3 hours; HPLC
T1 sequence (P31428 17-384): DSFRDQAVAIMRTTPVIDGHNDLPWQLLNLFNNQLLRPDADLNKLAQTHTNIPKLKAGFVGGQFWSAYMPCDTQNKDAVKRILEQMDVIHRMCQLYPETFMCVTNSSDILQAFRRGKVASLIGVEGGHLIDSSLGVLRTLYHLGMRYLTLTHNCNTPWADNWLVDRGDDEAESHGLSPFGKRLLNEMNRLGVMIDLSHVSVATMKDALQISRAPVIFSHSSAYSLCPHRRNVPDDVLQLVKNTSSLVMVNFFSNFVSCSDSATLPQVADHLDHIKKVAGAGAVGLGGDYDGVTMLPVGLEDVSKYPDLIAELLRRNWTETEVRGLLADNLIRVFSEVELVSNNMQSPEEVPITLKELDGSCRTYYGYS

porcine renal DHP-I = target: T2, porcine renal DHP-I (Sus scrofa, UniProt P22412); assay: Test 2: stability against DHP-I (porcine); details: partly purified Porcine DHP-I, 100 μg (titer)/ml, 37° C., HPLC
T2 sequence (P22412 17-384): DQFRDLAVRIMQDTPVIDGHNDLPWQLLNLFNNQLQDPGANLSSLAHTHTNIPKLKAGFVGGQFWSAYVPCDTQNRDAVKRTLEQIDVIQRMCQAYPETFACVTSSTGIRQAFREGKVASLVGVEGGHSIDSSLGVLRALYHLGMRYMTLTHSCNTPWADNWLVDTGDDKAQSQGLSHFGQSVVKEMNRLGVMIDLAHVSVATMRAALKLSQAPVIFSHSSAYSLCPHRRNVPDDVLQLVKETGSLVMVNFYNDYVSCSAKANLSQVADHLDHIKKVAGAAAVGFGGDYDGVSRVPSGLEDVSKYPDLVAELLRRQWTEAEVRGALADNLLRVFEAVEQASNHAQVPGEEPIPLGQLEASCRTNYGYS

[1] = Sensitivity Disk agar-N+5% Horse blood

Compound | MIC (C. freundii GN346) | MIC (E. coli NIHJ JC-2) | MIC (E. faecalis W-73) | MIC (E. hirae ATCC8043) | MIC (H. influenzae PRC2) | MIC (H. influenzae PRC44) | MIC (K. pneumoniae PCI602) | MIC (M. catarrhalis W-0500) | MIC (P. vulgaris GN7919) | MIC (S. aureus 209P JC-1) | MIC (S. aureus M126) | MIC (S. epidermidis ATCC14990) | MIC (S. pneumoniae PRC9) | residual amounts (%) after 3 hours (mouse DHP-I) | residual amounts (%) after 3 hours (porcine renal DHP-I) | other results
C[C@@H](O)[C@H]1C(=O)N2C(C(=O)[O-])=C(c3cn4cnc([S+](C)[O-])c4s3)[C@H](C)[C@H]12.[Na+] (stereo partly drawn) [Example 26, Sodium (1S,5R,6S)-6-((1R)-1-Hydroxyethyl)-2-(7-methanesulfinylimidazo[5,1-b]thiazol-2-yl)-1-methyl-1-carbapen-2-em-3-carboxylate] | 1.56 µg/mL | 0.05 µg/mL | 0.39 µg/mL | 0.78 µg/mL | < 0.025 µg/mL | 0.05 µg/mL | 0.1 µg/mL | 0.05 µg/mL | 0.2 µg/mL | < 0.025 µg/mL | 6.25 µg/mL | < 0.025 µg/mL | 0.1 µg/mL | 11% | 44% | 
(1R,5S,6S)-6-((1R)-1-hydroxyethyl)-1-methyl-2-[(3S,5S)-5-(6-methylimidazo[5,1-b]thiazolium-2-yl)methylpyrrolidin-3-yl]thiocarbapen-2-em-3-carboxylic acid iodide [Compound B, reference compound] |  |  |  |  |  |  |  |  |  |  |  |  |  |  |  | minimum inhibiting concentrations (MIC) (C. freundii GN346): 0.10 µg/mL; minimum inhibiting concentrations (MIC) (E. coli NIHJ JC-2; [1]): 0.05 µg/mL; minimum inhibiting concentrations (MIC) (E. faecalis W-73; [1]): 3.13 µg/mL; minimum inhibiting concentrations (MIC) (E. hirae ATCC8043): 1.56 µg/mL; minimum inhibiting concentrations (MIC) (H. influenzae PRC2): 0.10 µg/mL; minimum inhibiting concentrations (MIC) (H. influenzae PRC44): 0.78 µg/mL; minimum inhibiting concentrations (MIC) (K. pneumoniae PCI602): 0.10 µg/mL; minimum inhibiting concentrations (MIC) (M. catarrhalis W-0500; [1]): <0.025 µg/mL; minimum inhibiting concentrations (MIC) (P. vulgaris GN7919): 0.10 µg/mL; minimum inhibiting concentrations (MIC) (S. aureus 209P JC-1): <0.025 µg/mL; minimum inhibiting concentrations (MIC) (S. aureus M126): 6.25 µg/mL; minimum inhibiting concentrations (MIC) (S. epidermidis ATCC14990): 0.05 µg/mL; minimum inhibiting concentrations (MIC) (S. pneumoniae PRC9): 0.39 µg/mL
C[C@@H](O)[C@H]1C(=O)N2C(C(=O)O)=C(SCCN=CN)C[C@H]12 [Compound A, imipenem, reference compound] | 0.2 µg/mL (≈ 0.668 µM) | 0.1 µg/mL (≈ 0.334 µM) | 0.78 µg/mL (≈ 2.61 µM) | 0.78 µg/mL (≈ 2.61 µM) | 0.78 µg/mL (≈ 2.61 µM) | 12.5 µg/mL (≈ 41.8 µM) | 0.2 µg/mL (≈ 0.668 µM) | 0.05 µg/mL (≈ 0.167 µM) | 0.1 µg/mL (≈ 0.334 µM) | < 0.025 µg/mL | 25 µg/mL (≈ 83.5 µM) | < 0.025 µg/mL | 0.2 µg/mL (≈ 0.668 µM) | 14% | <0.3% | 
CCC(=O)c1ncn2cc(C3=C(C(=O)[O-])N4C(=O)[C@H]([C@@H](C)O)[C@H]4C3)sc12.[Na+] [Example 27, Sodium (5R,6S)-6-((1R)-1-Hydroxyethyl)-2-(7-propionylimidazo[5,1-b]thiazol-2-yl)-1-carbapen-2-em-3-carboxylate] | 0.39 µg/mL | 0.2 µg/mL | 0.1 µg/mL | 0.39 µg/mL | < 0.025 µg/mL | 0.05 µg/mL | 0.1 µg/mL | < 0.025 µg/mL | 0.2 µg/mL | 0.05 µg/mL | 0.78 µg/mL | 0.05 µg/mL | 0.05 µg/mL | 1.2% | 38% | 
C[C@@H](O)[C@H]1C(=O)N2C(C(=O)[O-])=C(c3cn4cnc(C(=O)CO)c4s3)[C@H](C)[C@H]12.[Na+] [Example 71, Sodium (1S,5R,6S)-2-(7-Hydroxyacetylimidazo[5,1-b]thiazol-2-yl)-6-((1R)-1-hydroxyethyl)-1-methyl-1-carbapen-2-em-3-carboxylate] | 0.39 µg/mL | < 0.025 µg/mL | 0.39 µg/mL | 0.39 µg/mL | < 0.025 µg/mL | 0.05 µg/mL | < 0.025 µg/mL | < 0.025 µg/mL | < 0.025 µg/mL | < 0.025 µg/mL | 3.13 µg/mL | < 0.025 µg/mL | 0.1 µg/mL | <0.1% | 33% | 
C[C@@H](O)[C@H]1C(=O)N2C(C(=O)O)=C(S[C@@H]3CN[C@H](C(=O)N(C)C)C3)[C@H](C)[C@H]12 [Compound C, meropenem, reference compound] |  |  |  |  |  |  |  |  |  |  |  |  |  | 8.5% | 41% | 
CC(=O)c1nc(C)n2cc(C3=C(C(=O)[O-])N4C(=O)[C@H]([C@@H](C)O)[C@H]4[C@H]3C)sc12.[Na+] [Example 19, Sodium (1S,5R,6S)-2-(7-Acetyl-5-methylimidazo[5,1-b]thiazol-2-yl)-6-((1R)-1-hydroxyethyl)-1-methyl-1-carbapen-2-em-3-carboxylate] |  |  |  |  |  |  |  |  |  |  |  |  |  | 45% | 77% | 
